Test results reported in PMC12494546, “Structural basis of heme scavenging by the ChtA and HtaA hemophores in Corynebacterium diphtheriae” (The Journal of Biological Chemistry, 2025).
“And” between values parts separate entries of the source, which are not always exact repeats. Equal values may be shown once.

Legend:
ChtA^CR Y129A = assay: ITC of hemin binding to ChtA^CR Y129A; set-up: species or system Corynebacterium diphtheriae
Text: (§1) Protein samples were equilibrated in titration buffer supplemented with 5% (v/v) DMSO. […] Binding isotherms were fit to a one-site binding model using the program ORIGIN ([91]).

IsdA NEAT domain = target: IsdA NEAT domain; set-up: method as in PMID 23649633, PMID 24245481; conditions: ITC, ref [57], [58]; cited from earlier work
ChtA^CR Y178A = assay: ITC of hemin binding to ChtA^CR Y178A; set-up: species or system Corynebacterium diphtheriae
Text: as §1

ChtA^CR Y178H = assay: ITC of hemin binding to ChtA^CR Y178H; set-up: species or system Corynebacterium diphtheriae; conditions: 25 °C, average of three replicates
Text: as §1

[1] = tested on: HtaB^CR (donor) / HtaA^CR2 (acceptor); assay: Native ESI-MS hemin partitioning HtaB^CR → HtaA^CR2; format: binding, Corynebacterium diphtheriae
Protocol: (§2) nESI-MS was used for ligand (heme)-competition experiments between CR domain pairs to determine their relative heme dissociation constant Krelative (Krel) ([37], [56]). In this approach, two different CR domains (e.g. a >90% heme-loaded “heme donor” and a <10% heme-loaded “heme acceptor” CR domain) are mixed and allowed to come to equilibrium (>6 h, 24 °C). The resulting mixture is then analyzed by nESI-MS, where the apo- and holo-abundance of each CR domain is determined from the sum peak intensity from each of their charge states as described previously ([37]). The relative affinity between the CR pair tested can be determined by their nESI-MS abundances according to Equation 1, which is derived from the ratio of each CR’s KD for heme. Importantly, this analysis is independent of [heme] and Krel should be consistent across different concentrations of [heme donor] and [heme acceptor]; thus, we used at least three different holo-donor and apo-acceptor stoichiometry ratios to determine each Krel reported in Table S4.(eq. 1) KRelative=[CR^hemeacceptor][CR^hemedonor·heme]/[CR^hemedonor][CR^hemeacceptor·heme]=Ab(CR^hemeacceptor)Ab(CR^hemedonor·heme)/Ab(CR^hemedonor)Ab(CR^hemeacceptor·heme)
(§3) For nESI-MS heme-competition experiments, CR domains were first buffer-exchanged into 50 mM ammonium acetate (pH 6.9) using dialysis or gel filtration and protein concentration was determined by bicinchoninic acid assay or UV-visible absorbance at 280 nm. Proteins were then mixed at donor:acceptor ratios ranging from 1:9 to 9:1 (but most often 1:3, 1:1, and 3:1), and incubated for at least 6 h at 24 °C. Equilibrated mixtures were then loaded into platinum-coated borosilicate emitter tips with an inner diameter of 200 to 500 nm pulled on a Sutter P-1000 Micropipette Puller and sprayed on a Q-Exactive UHMR Hybrid Quadrupole-Orbitrap Mass Spectrometer (Thermo Fisher Scientific).
(§4) Table of all CR pairs and stoichiometric ratios tested during the native ESI-MS heme equilibrium partitioning experiments. Apo or holo CR domains were mixed at various ratios (most commonly 1:3, 1:1, and 3:1, corresponding to 5:15 µM, 10:10 µM, or 15:5 µM, respectively).

metHb = target: T1, metHb (Homo sapiens, UniProt P68871+P69905); assay: Hemin release kinetics from metHb (A405 plate reader assay with apo-acceptor); format: binding; conditions: 5 µM metHb, brackets 95% confidence interval; for kfast / kslow: 25 °C
T1 construct: blood-purified HbA in the carbonmonoxy form; from tissue; host or cells: blood
T1 sequence (P69905 2-142 limits assumed): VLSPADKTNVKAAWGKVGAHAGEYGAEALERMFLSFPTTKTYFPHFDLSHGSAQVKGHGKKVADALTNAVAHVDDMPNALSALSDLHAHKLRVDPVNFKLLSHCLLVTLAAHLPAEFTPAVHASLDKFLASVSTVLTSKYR
T1 sequence (P68871 2-147 limits assumed): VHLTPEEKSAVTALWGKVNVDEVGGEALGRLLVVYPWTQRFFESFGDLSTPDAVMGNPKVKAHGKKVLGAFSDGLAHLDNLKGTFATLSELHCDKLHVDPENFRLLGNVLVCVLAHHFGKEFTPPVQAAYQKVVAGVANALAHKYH
Protocol: Holo-metHb was injected to a final concentration of 5 μM on the heme basis in triplicate with 50 μM of the respective apo protein in a 384-well plate. The absorbance at 405 nm was measured every 2.5 min for 20 h in a SpectraMax iD3 plate reader (Molecular Devices). Experiments were performed at 25 °C to avoid apo-globin aggregation. Resulting curves were fit to a two-phase exponential decay equation in GraphPad Prism version 9.5.0 (GraphPad Software).
Bracketed values represent the 95% confidence interval for the fitted parameter values.

IsdH NEAT domain = target: IsdH NEAT domain; set-up: method as in PMID 23649633, PMID 24245481; conditions: ITC, ref [57], [58]; cited from earlier work
[2] = tested on: HtaA^CR2 (donor) / HtaB^CR (acceptor); assay: Native ESI-MS hemin partitioning HtaA^CR2 → HtaB^CR; format: binding, Corynebacterium diphtheriae
Protocol: as §2, §3, §4

[3] = tested on: HtaA^CR2 (donor) / ChtA^CR (acceptor); assay: Native ESI-MS hemin partitioning HtaA^CR2 → ChtA^CR; format: binding, Corynebacterium diphtheriae
Protocol: as §2, §3, §4

ChtA^CR K177G = assay: ITC of hemin binding to ChtA^CR K177G; set-up: species or system Corynebacterium diphtheriae; conditions: 25 °C, average of three replicates
Text: as §1

[4] = tested on: HtaA^CR1 (donor) / HtaB^CR (acceptor); assay: Native ESI-MS hemin partitioning HtaA^CR1 → HtaB^CR; format: binding, Corynebacterium diphtheriae
Protocol: as §2, §3, §4

ChtA^CR K177G + Y178H = assay: ITC of hemin binding to ChtA^CR K177G + Y178H; set-up: species or system Corynebacterium diphtheriae; conditions: 25 °C, average of three replicates
Text: as §1

[5] = apo-acceptor Myoglobin^H64Y/V68F 50 µM

For hemin, the “decrease in binding affinity” value (ChtA^CR Y129A; ChtA^CR Y129A versus WT) is given as over 25 fold, the Kd (ChtA^CR Y129A; ChtA^CR Y129A, 25 °C, average of three replicates) is given as over 500 nM and the Kd (IsdA NEAT domain) is given as 14 ± 4 nM. For the same substance, the reduction of affinity (ChtA^CR Y178A; ChtA^CR Y178A versus WT) was about 2 fold, the Kd (ChtA^CR Y178A; ChtA^CR Y178A, 25 °C, average of three replicates) was 46.6 ± 9.6 nM and the Kd (ChtA^CR Y178H) was 54.8 ± 1.9 nM. For the same substance, the “Krel (donor/acceptor)” value ([1]; acceptor HtaA^CR2, AVERAGE) was 0.18 ± 0.01, the Krel inverse ([1]; acceptor HtaA^CR2, AVERAGE) was 5.66 ± 0.33 and the “Krel (donor/acceptor)” value ([1]; acceptor HtaA^CR2, ratio 1:1) was 0.17. The Krel inverse ([1]; acceptor HtaA^CR2, ratio 1:1) was 5.8, the “Krel (donor/acceptor)” value ([1]; acceptor HtaA^CR2, ratio 1:3) was 0.17 and the Krel inverse ([1]; acceptor HtaA^CR2, ratio 1:3) was 5.9. For the same substance, the “Krel (donor/acceptor)” value ([1]; acceptor HtaA^CR2, ratio 3:1) was 0.19, the Krel inverse ([1]; acceptor HtaA^CR2, ratio 3:1) was 5.28 and the kfast (metHb; apo-acceptor ChtA^CR 50 µM) was 1.78 [1.51 - 2.1] hr^-1. For the same substance, the kslow (metHb; apo-acceptor ChtA^CR 50 µM) was 0.18 [0.17 - 0.19] hr^-1, the “%kfast” value (metHb; apo-acceptor ChtA^CR 50 µM) was 35.52% [33.1% - 37.9%] and the kfast (metHb; apo-acceptor HtaA^CR1 50 µM) was 1.55 [1.13 - 2.15] hr^-1. The kslow (metHb; apo-acceptor HtaA^CR1 50 µM) was 0.21 [0.18 - 0.23] hr^-1, the “%kfast” value (metHb; apo-acceptor HtaA^CR1 50 µM) was 33.11% [26.9% - 39%] and the kfast (metHb; apo-acceptor HtaA^CR2 50 µM) was 2.46 [2.23 - 2.72] hr^-1. For the same substance, the kslow (metHb; apo-acceptor HtaA^CR2 50 µM) was 0.21 [0.19 to 0.22] hr^-1, the “%kfast” value (metHb; apo-acceptor HtaA^CR2 50 µM) was 41.11% [39.3% - 42.9%] and the kslow (metHb; [5]) was 0.13 [0.11 - 0.14] hr^-1. For the same substance, the “%kfast” value (metHb; [5]) was 34.6% [30.8% - 38.3%], the Kd (IsdH NEAT domain) was 34 ± 8 nM and the “Krel (donor/acceptor)” value ([2]; AVERAGE) was 4.93 ± 0.88. The Krel inverse ([2]; AVERAGE) was 0.21 ± 0.04, the “Krel (donor/acceptor)” value ([2]; ratio 1:1) was 3.92 and the Krel inverse ([2]; ratio 1:1) was 0.26. The “Krel (donor/acceptor)” value ([2]; ratio 1:3) was 5.31, the Krel inverse ([2]; ratio 1:3) was 0.19 and the “Krel (donor/acceptor)” value ([2]; ratio 3:1) was 5.56. For the same substance, the Krel inverse ([2]; ratio 3:1) was 0.18, the Krel inverse ([3]; AVERAGE) was 24.96 ± 8.87 and the “Krel (donor/acceptor)” value ([3]; ratio 1:1) was 0.05. The Krel inverse ([3]; ratio 1:1) was 18.29, the “Krel (donor/acceptor)” value ([3]; ratio 1:3) was 0.05 and the Krel inverse ([3]; ratio 1:3) was 19.27. The “Krel (donor/acceptor)” value ([3]; ratio 2:1) was 0.03 and 0.06, the Krel inverse ([3]; ratio 3:1) was 32.96 and the “Krel (donor/acceptor)” value ([3]; ratio (donor:acceptor) 3:1) was 0.03. The Kd (ChtA^CR K177G) was 23.6 ± 0.8 nM, the “Krel (donor/acceptor)” value ([4]; AVERAGE) was 5.75 ± 1.4 and the Krel inverse ([4]; AVERAGE) was 0.18 ± 0.05. The “Krel (donor/acceptor)” value ([4]; ratio 1:1) was 7.51 and 4.09 and 6.88, the Krel inverse ([4]; ratio 1:1) was 0.13 and 0.24 and 0.15 and the “Krel (donor/acceptor)” value ([4]; ratio 1:3) was 4.46 and 4.42. The Krel inverse ([4]; ratio 1:3) was 0.22 and 0.23, the “Krel (donor/acceptor)” value ([4]; ratio 3:1) was 6.16 and 6.76 and the Krel inverse ([4]; ratio 3:1) was 0.16 and 0.15. It also gave a Kd (ChtA^CR K177G + Y178H) of 27.1 ± 9 nM.
